Experimental data taken from US20250049904A1, “IMMUNOSTIMULATORY COMPOSITIONS” (VICTORIA LINK LIMITED, priority 2021, published 2025).

Assays:
Assay type in all cases: in vivo, C57BL/6 mice
[1] = system: tissue-resident memory T cells (TRM cells); assay: LPX-mRNA vaccination of mice i.v.; antigen-specific TRM, TEM and TCM cells in liver and spleen by flow cytometry; conditions: agonist in LPX-mOVA vaccine, OT-I transfer, liver 30 days later; for proportion of liver TRM among all vaccine-induced antigen-specific T cells (TRM cell-inducing capability): relative to α-GalCer vaccine
[2] = system: tissue-resident memory T cells (TRM cells); assay: as above; conditions: LPX-mOVA vaccines i.v., OT-I cell transfer, 28 days after vaccination
Method: FIG. 1 provides a graphical representation showing that LPX-mRNA vaccines containing CI058 induce high levels of liver TRM cells. Liposomes were prepared with DOTMA and DOPE lipids and complexed with mRNA encoding chicken ovalbumin (OVA) to give vaccine LPX-mOVA. Additional vaccines were prepared by including either the prototypical NKT cell agonist α-GalCer (LPX-mOVA-α-GalCer) or the derivative CI058, which has BODIPY attached via an —S in the 6 position of the galactose (LPX-mOVA-CI058). Recipient C57BL/6 mice were transferred 50,000 naïve OVA-specific TCR-transgenic CD8+ T cells (OT-I cells) to enhance the precursor frequency of antigen-specific T cells to aid detection of vaccine-induced responses. A day later, groups of mice (n=5-6) were vaccinated intravenously (0.08 nmol) with the different vaccines; a naive mouse was left untreated. After 28 days, mice were killed and liver and spleen collected for analysis of induced T cell response by flow cytometry. Antigen-specific cells were identified using fluorescent MHC/peptide tetramers containing the targeted CD8^+ T cell epitope recognised by OT-I cells, and expression of Ly5.1, a congenic marker expressed by the OT-I mouse strain and not recipient C57BL/6 mice. The antigen-specific cells were further characterised as resident-memory T cells (TRM cells; CD8^+ Ly5.1^+ […] CD62L^low cells), effector memory T cells (TEM cells; CD8^+ Ly5.1^+ CD44^+ CD69^− CD62L^low cells) or central memory cells (TCM cells; CD8^+ Ly5.1^+ CD44^+ CD69^− CD62Lhigh cells). (A) Percentages of TRM, TEM and TCM OT-I cells in each treatment group in liver. Mean±SEM for each T cell subset are shown; statistical analysis relates only to pairwise comparisons of the percentage of TRM cells between the treatment groups. Black bars: TRM cells; white bars: TEM cells; grey bars: TCM cells. *P<0.05, **P<0.01, ***P<0.001, ****P<0.0001. One-way ANOVA. (B) Percentages of RM, TEM and TCM OT-I cells in each treatment group in spleen. (C) Mean number of TRM cells in liver for each treatment group (±SEM); dots represent individual mice. Black bars: TRM cells; white bars: TEM cells; grey bars: TCM cells. *P<0.05, **P<0.01, ***P<0.001, ****P<0.0001. One-way ANOVA.
Dose response of LPX-mOVA-α-GalCer versus LPX-mOVA-CI058 vaccines. Analysis was in C57BL/6 mice, without transfer of OT-I cells, so endogenous T cell responses were monitored on a normal T cell repertoire. Groups of 5 mice were used, and vaccines were administered intravenously. After 28 days, mice were killed and liver tissue collected for analysis of induced T cell response by flow cytometry. Antigen-specific cells were identified using fluorescent MHC/peptide tetramers, and further characterised as resident-memory T cells (TRM CD8^+ CD44^+ CD69^+ CXCR6^+ CD49a^+ CD62L^low cells), effector memory T cells (TEM CD8^+ CD44^+ CD69^− KLRG1^+ CXCR3^+ CD62L^low cells) or central memory cells (TCM CD8^+ CD44^+ CD69^− CD62L^high cells). At the same timer, NKT cells in the liver were also evaluated using fluorescent CD1d/α-GalCer tetramers. These were characterised for expression of different markers of activation, including PD-1 (only the latter is shown here). White circles: LPX-mOVA-α-GalCer; black circles: LPX-mOVA-CI058. (A) Graph showing mean number of TRM cells in liver for each treatment group (±SEM) overdose range. ****P<0.0001. (B) Graph showing mean level of expression of the “invariant” NKT cell-associated TCR for each treatment group (±SEM), defined as level of binding of fluorescent CD1d/α-GalCer tetramers and expressed as mean fluorescence index. ****P<0.0001 (C) Graph showing mean level of expression of PD-1 on NKT cells for each treatment group (±SEM). **P<0.01
To examine whether a prodrug mechanism is involved in enhanced TRM cell induction, LPX-mOVA-CI058 vaccines were compared to vaccines containing different NKT cell agonist prodrugs. […]

liver TRM cells = assay: LNP-mRNA vaccines, prime and boost; TRM cells in liver and spleen; conditions: i.m. and i.v.
Method: Vaccines were prepared with mRNA encoding OVA encapsulated in LNPs (LNP-mOVA-CI058). Groups of mice (n=5) were vaccinated twice, with an interval of either two weeks, or eight weeks, and then liver and spleen were collected for analysis of T cell responses 28 days after the last dose. (A) Percentages of antigen-specific TRM cells, TEM cells and TCM cells are shown for liver. Black bars: TRM cells; white bars: TEM cells; grey bars: TCM cells. (B) Percentages of antigen-specific TRM cells, TEM cells and TCM cells are shown for spleen. Black bars: TRM cells; white bars: TEM cells; grey bars: TCM cells. (C) Mean number of TRM cells in liver for each treatment group (±SEM); dots represent individual mice. *P<0.05.
Vaccines were prepared with mRNA encoding OVA encapsulated in LNPs (LNP-mOVA-CI536). Groups (n=9-10) of naïve C57BL/6 mice (i.e., no OT-I transfer) were vaccinated once, or twice with an interval of two weeks, with the liver and spleen collected for analysis of T cell responses 28 days after the last dose. (A) Numbers of antigen-specific TRM cells for liver. […] Data were log transformed and analysed by One-way ANOVA with Tukey's post test **P<0.01, ***P<0.001, ****P<0.0001. […]
LNP-mRNA vaccines comprising an ionizable lipid are an established formulation strategy to deliver mRNA vaccines safely and effectively. Therefore, the capacity of LNP-mRNA vaccines containing CI536 and the ionizable lipid DLin-MC3-DMA to stimulate liver TRM was evaluated. […] The memory T cell responses were assessed 28 days after the prime and boost so the impact of the second dose could be assessed. […]
Lymphocytes were stained with monoclonal antibodies for: CD8a (53-6.7), Ly5.1 (A20), CD44 (IM7), CXCR6 (SA051D1), CX3CR1 (SA011F11), from BioLegend (Australian Biosearch, Karrinyup, WA. Australia), and CD62L (MEL-14) and CD69 (H1.2F3), from eBioscience (Jomar Life Research, Scoresby, VIC, Australia). […] Single-color positive control samples were used to adjust compensation and cells were analyzed by flow cytometry on a LSR Fortessa (BD Biosciences), or LSRII SORP using Flowjo software (Tree Star Inc.).

SMILES	overall TRM cell accumulation in the liver [1]	proportion of liver TRM among all vaccine-induced antigen-specific T cells (TRM cell-inducing capability) [1]	further results
CCCCCCCCCCCCCCCCCCCCCCCCCC(=O)N[C@@H](CO[C@H]1OC(CSCCCCCNC(=O)CCC2=C3C(C)=CC(C)=[N+]3[B-](F)(F)n3c(C)cc(C)c32)[C@H](O)C(O)[C@@H]1O)[C@H](O)[C@H](O)CCCCCCCCCCCCCC (stereo partly drawn) [CI534]	All but two of the 6'S-substituted agonists (CI534, CI540)	significantly enhanced relative to vaccines with α-GalCer	–
CCCCCCCCCCCCCCCCCCCCCCCCCC(=O)N[C@@H](CO[C@H]1OC(CSCCCCCNC(=O)OCc2c3ccccc3cc3ccccc23)[C@H](O)C(O)[C@@H]1O)[C@H](O)[C@H](O)CCCCCCCCCCCCCC (stereo partly drawn) [CI540]	All but two of the 6'S-substituted agonists (CI534, CI540)	–	–
CCCCCCCCCCCCCCCCCCCCCCCCCC(=O)N[C@@H](CO[C@H]1OC(CN)[C@H](O)C(O)C1O)[C@H](O)[C@H](O)CCCCCCCCCCCCCC (stereo partly drawn) [CN168]	–	significantly enhanced relative to vaccines with α-GalCer	–
CCCCCCCCCCCCCCCCCCCCCCCCCC(=O)N[C@@H](CO[C@H]1O[C@H](CS)[C@H](O)[C@H](O)[C@H]1O)[C@H](O)[C@H](O)CCCCCCCCCCCCCC [CN237]	–	significantly enhanced relative to vaccines with α-GalCer	–
CCCCCCCCCCCCCCCCCCCCCCCCCC(=O)N[C@@H](CO[C@H]1O[C@H](CO)[C@H](O)[C@H](O)[C@H]1O)[C@H](O)[C@H](O)CCCCCCCCCCCCCC [α-GalCer, reference compound]	–	–	proportion of TRM cells among antigen-specific T cells in liver and spleen [2]: low proportions of TRM cells in liver and spleen
CCCCCCCCCCCCCCCCCCCCCCCCCC(=O)N[C@@H](CO[C@H]1O[C@H](CSCC(N)=O)[C@H](O)[C@H](O)[C@H]1O)[C@H](O)[C@H](O)CCCCCCCCCCCCCC [CI536, (2S,3S,4R)-1-(6-Deoxy-6-((2-amino-2-oxoethyl)thio)-α-D-galactopyranosyloxy)-2-hexacosanoylamino-3,4-octadecandiol]	–	–	proportion of TEM in the spleen (liver TRM cells; LNP with DLin-MC3-DMA, 28 days): higher proportion of TEM; proportion of TRM in liver compared to spleen (liver TRM cells; LNP with DLin-MC3-DMA, prime or prime-boost, no T cell transfer, 28 days): increased proportion of liver TRM in the liver as compared to the spleen; number of liver TRM (liver TRM cells; boosted groups, two-week interval, vs PBS control): highest number of liver TRM compared to PBS control group
